Experimental findings from patent US20220241249A1, “PHARMACEUTICAL COMPOSITION AND KIT CONTAINING NOVEL PENAM DERIVATIVE OR SALT THEREOF AND ONE OR MORE COMPOUNDS SELECTED FROM beta-LACTAMASE INHIBITORY COMPOUND AND ANTIBACTERIAL COMPOUND OR SALTS THEREOF” (priority 2019, published 2022) are described below.

≈ marks a conversion by molar mass, not a printed value. Some results are limits rather than exact numbers.

Holding throughout (test): Antibacterial activity evaluation test, MIC by broth microdilution (CLSI)
Holding throughout (assay type): cell-based

In assay [1] the test system is KPC-2-containing Klebsiella pneumoniae strain (Y-995). The note with it: for MIC: Klebsiella pneumoniae. As to the method: (§1) The minimum inhibitory concentration (MIC) was measured according to the Clinical and Laboratory Standards Institute (CLSI) standard method by using the following broth microdilution method.
(§2) As bacteria, a Pseudomonas aeruginosa strain ATCC27853, an AmpC-derepressed Pseudomonas aeruginosa mutant strain (S-3028), an IMP-1-containing Pseudomonas aeruginosa strain (S-2838), a VIM-2-containing Pseudomonas aeruginosa strain (S-3779), a GES-19 and GES-20-containing Pseudomonas aeruginosa strain (S-3759), a CTX-M-15-containing Escherichia coli strain (TK-1747), a KPC-2-containing Klebsiella pneumoniae strain (Y-995), an OXA-48-containing Klebsiella pneumoniae strain (Y-1062), and an NDM-1-containing Klebsiella pneumoniae strain (Y-1007) were used. The test bacterial cells that had been cultured overnight on a Mueller Hinton agar medium were scraped off, suspended at a density equivalent to 0.5 McFarland standard, and diluted 10-fold, thereby obtaining an inoculum. A cation-adjusted Mueller Hinton medium containing a test compound was inoculated with 0.005 mL of the inoculum, and the cells were cultured at 35° C. for 16 to 20 hours. The minimum drug concentration at which the growth of bacteria was not visually observed was defined as MIC (μg/mL).
(§3) An antibacterial activity evaluation test was performed in the same manner as in Test Example 1.

Assay [2] relates to GES-19 and GES-20-containing Pseudomonas aeruginosa strain (S-3759). The note with it: for MIC: Pseudomonas aeruginosa. How it is done:
as §1, §2, §3

The test system of assay [3] is Pseudomonas aeruginosa strain ATCC27853. The note with it: Pseudomonas aeruginosa, ATCC27853. As to the method:
as §1, §2, §3

Assay [4] deals with OXA-48-containing Klebsiella pneumoniae strain (Y-1062). As to conditions: for MIC: Klebsiella pneumoniae. How it is done: as §1, §2, §3
The subject of assay [5] is CTX-M-15-containing Escherichia coli strain (TK-1747). The note with it: for MIC: Escherichia coli. How it is done: as §1, §2, §3
The test system of assay [6] is IMP-1-containing Pseudomonas aeruginosa strain (S-2838). The note with it: for MIC: Pseudomonas aeruginosa. As to the method: as §1, §2, §3
Assay [7] has as its system NDM-1-containing Klebsiella pneumoniae strain (Y-1007). As to conditions: for MIC: Klebsiella pneumoniae. How it is done:
as §1, §2, §3

For assay [8], the system named is AmpC-derepressed Pseudomonas aeruginosa mutant strain (S-3028). As to conditions: for MIC: Pseudomonas aeruginosa. As to the method:
as §1, §2, §3

Assay [9] relates to VIM-2-containing Pseudomonas aeruginosa strain (S-3779). As to conditions: for MIC: Pseudomonas aeruginosa. How it is done: as §1, §2, §3

As for `CC(C)(O/N=C(\C(=O)N[C@@H]1C(=O)N2C[C@@](C(=O)O)(N3CCN(NC(=O)CCNC(=O)C(=O)c4ccc(O)c(O)c4Cl)C3=O)S[C@H]12)c1csc(N)n1)C(=O)O` [Example 30, (3R,5R,6R)-6-((Z)-2-(2-aminothiazol-4-yl)-2-(((2-carboxypropan-2-yl)oxy)imino)acetamido)-3-(3-(3-(2-(2-chloro-3,4-dihydroxyphenyl)-2-oxoacetamido)propanamido)-2-oxoimidazolidin-1-yl)-7-oxo-4-thia-1-azabicyclo[3.2.0]heptane-3-carboxylic acid], the MIC in [1] is 0.25 µg/mL (≈ 0.308 µM); in [2], 0.5 µg/mL (≈ 0.616 µM); in assay [3], 0.25 µg/mL (≈ 0.308 µM); in assay [4], 0.5 µg/mL (≈ 0.616 µM); in assay [5] it was 0.25 µg/mL (≈ 0.308 µM); in [6], 0.5 µg/mL (≈ 0.616 µM). For the same compound, the figures for the MIC in assay [7], in assay [8] and in assay [9] were less than 0.06 µg/mL, less than 0.06 µg/mL and 0.5 µg/mL (≈ 0.616 µM), respectively.
Turning to `CC(C)(O/N=C(\C(=O)NC1C(=O)N2C[C@@](C(=O)O)(N3CCN(NC(=O)C(=O)NNC(=O)C(=O)c4ccc(O)c(O)c4Cl)C3=O)S[C@H]12)c1nc(N)sc1Cl)C(=O)O` (stereo partly drawn) [Example 136, (3R,5R,6R)-6-((Z)-2-(2-amino-5-chlorothia-zol-4-yl)-2-(((2-carboxy-propan-2-yl)oxy)imino)-acetamido)-3-(3-(2-(2-(2-(2-chloro-3,4-dihydroxyphenyl)-2-oxoacetyl)hydrizinyl)-2-oxoacetamido)-2-oxoimidazolidin-1-yl)-7-oxo-4-thia-1-aza-bicyclo[3.2.0]heptane-3-carboxylic acid], the MIC in assay [1] is 0.25 µg/mL (≈ 0.29 µM); in [2] it was 0.5 µg/mL (≈ 0.58 µM); in assay [3], 0.5 µg/mL (≈ 0.58 µM); in assay [4] it was 0.12 µg/mL (≈ 0.139 µM); in assay [5], less than 0.06 µg/mL; in [6], 0.12 µg/mL (≈ 0.139 µM). For the same compound, the MIC in [7] worked out at 0.12 µg/mL (≈ 0.139 µM); in assay [8] it was 0.12 µg/mL (≈ 0.139 µM); in assay [9] it was 0.5 µg/mL (≈ 0.58 µM).
For `CC(C)(O/N=C(\C(=O)N[C@@H]1C(=O)N2C[C@@](C(=O)O)(N3CCN(NC(=O)CNC(=O)C(=O)c4ccc(O)c(O)c4Cl)C3=O)S[C@H]12)c1csc(N)n1)C(=O)O` [Example 29], the MIC was 0.5 µg/mL (≈ 0.626 µM) in assay [1]; 0.5 µg/mL (≈ 0.626 µM) in assay [2]; 0.25 µg/mL (≈ 0.313 µM) in assay [3]; 1 µg/mL (≈ 1.25 µM) in assay [4]; 2 µg/mL (≈ 2.51 µM) in assay [5]; 1 µg/mL (≈ 1.25 µM) in assay [6]. Moreover, the MIC in assay [7] was less than 0.06 µg/mL; in [8], less than 0.06 µg/mL; in assay [9], 0.5 µg/mL (≈ 0.626 µM).
Consider `CC(C)(O/N=C(\C(=O)N[C@@H]1C(=O)N2C[C@@](C(=O)O)(N3CCN(NC(=O)C(=O)NNC(=O)C(=O)c4ccc(O)c(O)c4Cl)C3=O)S[C@H]12)c1csc(N)n1)C(=O)O` [Example 88, (3R,5R,6R)-6-((Z)-2-(2-aminothiazol-4-yl)-2-(((2-carboxypropan-2-yl)oxy)imino)acetamido)-3-(3-(2-(2-(2-(2-chloro-3,4-dihydroxyphenyl)-2-oxoacetyl)hydradienyl)-2-oxoacetamido)-2-oxoimidazolidin-1-yl)-7-oxo-4-thia-1-azabicyclo[3.2.0]heptane-3-carboxylic acid], for which the MIC in assay [1] came to 0.25 µg/mL (≈ 0.302 µM); in assay [2], 0.5 µg/mL (≈ 0.604 µM); in [3], 0.5 µg/mL (≈ 0.604 µM); in assay [4], 0.5 µg/mL (≈ 0.604 µM); in assay [5] it was 2 µg/mL (≈ 2.42 µM); in assay [6] it was 0.5 µg/mL (≈ 0.604 µM). For the same compound, the results for the MIC in assay [7], in [8] and in assay [9] were less than 0.06 µg/mL, 0.5 µg/mL (≈ 0.604 µM) and 0.5 µg/mL (≈ 0.604 µM), respectively.
For the compound `CC(C)(O/N=C(\C(=O)NC1C(=O)N2C[C@@](C(=O)O)(N3CCC[C@H](NC(=O)C(=O)c4ccc(O)c(O)c4Cl)C3=O)S[C@H]12)c1csc(N)n1)C(=O)O` (stereo partly drawn) [Example 156], in [1] (Klebsiella pneumoniae Y-995), the Antibacterial activity (MIC) Klebsiella pneumoniae Y-995 came out at 0.12 µg/mL. Moreover, in assay [2] (Pseudomonas aeruginosa S-3759), the Antibacterial activity (MIC) Pseudomonas aeruginosa S-3759 is 2 µg/mL. Besides, the Antibacterial activity (MIC) Pseudomonas aeruginosa ATCC 27853 in assay [3] was 2 µg/mL. The compound further displayed an Antibacterial activity (MIC) Klebsiella pneumoniae Y-1062 in assay [4] (Klebsiella pneumoniae Y-1062) of 0.5 µg/mL. Further, in [5] (Escherichia coli TK-1747), the Antibacterial activity (MIC) Escherichia coli TK-1747 was 0.12 µg/mL. This compound displayed an Antibacterial activity (MIC) Pseudomonas aeruginosa S-2838 in assay [6] (Pseudomonas aeruginosa S-2838) of 1 µg/mL. The compound also yielded an Antibacterial activity (MIC) Klebsiella pneumoniae Y-1007 in assay [7] (Klebsiella pneumoniae Y-1007) of less than 0.06 µg/mL. This compound returned an Antibacterial activity (MIC) Pseudomonas aeruginosa S-3028 in assay [8] (Pseudomonas aeruginosa S-3028) of 0.5 µg/mL. Further, the Antibacterial activity (MIC) Pseudomonas aeruginosa S-3779 in [9] (Pseudomonas aeruginosa S-3779) is 1 µg/mL.
As for `CC(C)(O/N=C(\C(=O)N[C@@H]1C(=O)N2C[C@@](C(=O)O)(N3CCN(NC(=O)CCNC(=O)c4ccc(O)c(O)c4Cl)C3=O)S[C@H]12)c1csc(N)n1)C(=O)O` [Example 28, (3R,5R,6R)-6-((Z)-2-(2-aminothiazol-4-yl)-2-(((2-carboxypropan-2-yl)oxy)imino)acetamido)-3-(3-(3-(2-chloro-3,4-dihydroxybenzamido)propanamido)-2-oxoimidazolidin-1-yl)-7-oxo-4-thia-1-azabicyclo[3.2.0]heptane-3-carboxylic acid], the MIC was determined as 1 µg/mL (≈ 1.28 µM) in [1]; 2 µg/mL (≈ 2.55 µM) in assay [2]; 0.5 µg/mL (≈ 0.638 µM) in assay [3]; 0.25 µg/mL (≈ 0.319 µM) in assay [4]; 2 µg/mL (≈ 2.55 µM) in assay [5]; 0.25 µg/mL (≈ 0.319 µM) in assay [6]. Moreover, the MIC in assay [7] is less than 0.06 µg/mL; in assay [8], 0.25 µg/mL (≈ 0.319 µM); in assay [9], 0.5 µg/mL (≈ 0.638 µM).
As to `CC(C)(O/N=C(\C(=O)N[C@@H]1C(=O)N2C[C@@](C(=O)O)(N3CCN(NC(=O)C(=O)c4ccc(O)c(O)c4Cl)C3=O)S[C@H]12)c1csc(N)n1)C(=O)O` [Example 20, (3R,5R,6R)-6-((Z)-2-(2-aminothiazol-4-yl)-2-(((2-carboxypropan-2-yl)oxy)imino)acetamido)-3-(3-(2-(2-chloro-3,4-dihydroxyphenyl)-2-oxoacetamido)-2-oxoimidazolidin-1-yl)-7-oxo-4-thia-1-azabicyclo[3.2.0]heptane-3-carboxylic acid], the MIC in assay [1] was 0.12 µg/mL (≈ 0.162 µM); in assay [2], 0.5 µg/mL (≈ 0.675 µM); in assay [3], 0.5 µg/mL (≈ 0.675 µM); in [4], 0.5 µg/mL (≈ 0.675 µM); in [5] it was less than 0.06 µg/mL; in assay [6] it was 0.12 µg/mL (≈ 0.162 µM). For the same compound, the MIC is less than 0.06 µg/mL in assay [7], 0.25 µg/mL (≈ 0.337 µM) in assay [8] and 0.25 µg/mL (≈ 0.337 µM) in assay [9].
`Nc1nc(/C(=N/OC2(C(=O)O)CC2)C(=O)N[C@@H]2C(=O)N3C[C@@](C(=O)O)(N4CCN(NC(=O)C(=O)c5ccc(O)c(O)c5Cl)C4=O)S[C@H]23)cs1` [Example 21, (3R,5R,6R)-6-((Z)-2-(2-aminothiazol-4-yl)-2-((1-carboxycyclopropoxy)imino)acetamido)-3-(3-(2-(2-chloro-3,4-dihydroxyphenyl)-2-oxoacetamido)-2-oxoimidazolidin-1-yl)-7-oxo-4-thia-1-azabicyclo[3.2.0]heptane-3-carboxylic acid]: the minimal inhibitory concentration (MIC) was less than 0.06 µg/mL in assay [1]; 1 µg/mL (≈ 1.35 µM) in [2]; 0.25 µg/mL (≈ 0.338 µM) in assay [3]; 2 µg/mL (≈ 2.71 µM) in [4]; 0.12 µg/mL (≈ 0.162 µM) in assay [5]; 2 µg/mL (≈ 2.71 µM) in [6]. Further, the MIC in assay [7] was less than 0.06 µg/mL; in assay [8], 4 µg/mL (≈ 5.41 µM); in assay [9] it was 0.5 µg/mL (≈ 0.676 µM).
